Results reported in patent US11161811B2, “Process for preparing Mannich base quaternary ammonium salt high-temperature resistant corrosion inhibitor and applications thereof” (SOUTHWEST PETROLEUM UNIVERSITY, priority 2018, dated 2021).

Experiments:
[1] = Compatibility with 20% hydrochloric acid system containing iron ion stabilizer, clay stabilizer and discharge aiding agent; type: physicochemical; settings: 0.1 g in 20% hydrochloric acid system with citric acid, potassium chloride and OP-10 or fluorocarbon surfactant; 90° C.
Experimental: The water solubility of the corrosion inhibitor prepared by Embodiments 1 to 4 and its compatibility with the system containing the iron ion stabilizer, clay stabilizer and discharge aiding agent under 90° C. are determined. The process is as follows: weigh 0.1 g of the corrosion inhibitor respectively, and dissolve in 200 mL of 20% hydrochloric acid solution, stir and observe its dissolution. Prepare 20% hydrochloric acid solution system adding with iron ion stabilizer citric acid, clay stabilizer potassium chloride and discharge aiding agent OP-10 or fluorocarbon surfactant, respectively, and then weigh 0.1 g of the corrosion inhibitor and add them to the 20% hydrochloric acid solution system, to observe the compatibility.

[2] = 4 h corrosion weight loss test (corrosion inhibition performance); settings: P110 carbon steel, 20% hydrochloric acid, 90° C., 1000 ppm corrosion inhibitor
Experimental: The corrosion inhibition performance of corrosion inhibitors in the embodiments 1 to 4 is determined by a 4 h corrosion weight loss test at 90° C. using 20% hydrochloric acid as a corrosive medium and P110 carbon steels. The amount of corrosion inhibitors is 1000 ppm.

[3] = 0.1 g corrosion inhibitor in 200 mL of 20% hydrochloric acid solution, stirred, dissolution observed

SMILES | Compatibility [1] | Inhibition rate [2] [%] | Water solubility [3]
O=C(/C=C/c1ccccc1)CC(c1cccc(-c2cccs2)c1)[N+](Cc1ccccc1)(Cc1ccccc1)Cc1ccccc1 (stereo not drawn) [Embodiment 1] | Uniform and transparent, no | 98.63 | Soluble reddish brown
O=C(CC(=C(c1ccccc1)c1ccccc1)c1ccccc1)CC(/C=C/c1ccccc1)[N+]1(Cc2ccc3ccccc3c2)CCCCC1C(c1ccccc1)c1ccccc1 (stereo not drawn) [Embodiment 2] | Uniform and transparent, no | 97.96 | Soluble reddish brown
O=C(/C=C/c1ccccc1)CC(/C=C/c1ccccc1)[N+]1(C(c2ccccc2)(c2ccccc2)c2ccccc2)C=Cc2ccccc21 (stereo not drawn) [Embodiment 3] | Uniform and transparent, no | 98.59 | Soluble reddish brown
CC(O)C[N+](Cc1ccc2ccccc2c1)(CC(C)O)C(CC(=O)CC(=C(c1ccccc1)c1ccccc1)c1ccccc1)c1cccc(-c2cccs2)c1 (stereo not drawn) [Embodiment 4] | Uniform and transparent, no | 98.41 | Soluble reddish brown
